Data on six molecules can be found in the NIST ThermoML archive (doi:10.1021/je200800f).

For data set [1] the following is noted: DTA.
Data set [2] in a line: Molar enthalpy of transition or fusion. As to conditions: Crystal; DSC.

Structures are written as SMILES. Numbers after ± are expanded uncertainties.

As for `O=C(O)CCCC(=O)O` [1,5-pentanedioic acid], the Normal melting temperature in data set [1] (Crystal) was found to be 96.0 ± 2 °C. The “Molar enthalpy of transition or fusion” value in data set [2] was 5.14 ± 0.215 kcal/mol.

As to `O=C(O)CCCCC(=O)O` [1,6-hexanedioic acid], the Normal melting temperature in data set [1] (Crystal) turned out to be 153.2 ± 2 °C. In data set [2], the “Molar enthalpy of transition or fusion” value amounted to 8.41 ± 0.382 kcal/mol.

With `O=C(O)CCCCCC(=O)O` [1,7-heptanedioic acid], the Normal melting temperature in data set [1] (Crystal) was determined as 104.2 ± 2 °C. Moreover, the “Molar enthalpy of transition or fusion” value in data set [2] stood at 6.88 ± 0.287 kcal/mol.

As to `CC(C)(CC(=O)O)C(=O)O` [2,2-dimethyl-1,4-butanedioic acid], the Normal melting temperature in data set [1] (Crystal 1) was 138 ± 2 °C. Further, in data set [2], the “Molar enthalpy of transition or fusion” value was found to be 9.11 ± 0.287 kcal/mol.

Regarding `CC(C(=O)O)C(C)C(=O)O` (configuration not stated) [2,3-dimethyl-1,4-butanedioic acid], in data set [1] (Crystal), the Normal melting temperature is 119.4 ± 2 °C. The “Molar enthalpy of transition or fusion” value in data set [2] is 4.04 ± 0.167 kcal/mol.

In the case of `CC(CC(=O)O)CC(=O)O` [3-methylpentanedioic acid], the Normal melting temperature in data set [1] (Crystal 1) turned out to be 85.5 ± 2 °C. Further, the “Molar enthalpy of transition or fusion” value in data set [2] was 7.39 ± 0.287 kcal/mol.
